Results taken from patent US20190076434A1, “METHODS OF TREATING PERIPHERAL VASCULAR DISEASES, INCLUDING SYSTEMIC SCLEROSIS VASCULOPATHY” (UNIVERSITY OF UTAH RESEARCH FOUNDATION, priority 2016, published 2019).

Columns and labels:
patients with SSc [1] = tested on: patients with SSc
patients with SSc [2] = experiment: Example 2: brachial artery flow-mediated dilation (FMD), double-blind randomized crossover, BH4 vs placebo; type: in vivo, human
Source text: Methods: Subjects. Eleven subjects with SSc (3 men and 8 women) were recruited from the University of Utah SSc clinic to participate in the current study. All subjects had either a diagnosis of SSc as accepted by the American College of Rheumatology or early SSc as described by Leroy and […]. All subjects gave their written informed consent before participation. Protocol approval and written informed consent were obtained, according to the University of Utah and Salt Lake City Veterans Affairs Medical Center (VAMC) Institutional Review Board, in accordance with the principles outlined in the Declaration of Helsinki. All data collection took place in the Utah Vascular Research Laboratory at the Salt Lake City VAMC Geriatric Research, Education, and Clinical Center. Experimental Design. […] Subjects consumed a standardized breakfast and were administered oral BH4 (10 mg/kg) or placebo five hours prior arrival at the laboratory. Measurements were taken at the same time of day to eliminate any diurnal effects and after having abstained from food (not including the standardized breakfast), alcohol, caffeine, cardiovascular-acting medications, and exercise for ≥12 hours. […] Heart rate was monitored from a standard 3-lead ECG. […] FMD was quantified as the maximal change in BA diameter after cuff release. NMD was quantified as the maximal change in BA diameter after sublingual nitroglycerin supplementation. […] Shear rate was calculated according to the equation: shear rate (s-1)=(Vmean·8)/vessel diameter. Blood flow was calculated as per the equation: blood flow (mL·min)=(blood velocity×π)×(vessel diameter/2)2×(60). Cumulative shear rate cumulative area under the curve at the time of peak BA vasodilation was integrated with the trapezoidal rule and calculated as per the following equation: τ([…]]). Forearm vascular conductance was calculated according to the equation: […]. Forearm vascular resistance was calculated according to the equation: […]. […] Paired, one-tailed t-tests were used to identify significant changes in measured variables between placebo and BH4 conditions. […]

patients with SSc [3] = experiment: Example 2: seated brachial artery blood pressure and mean arterial pressure, BH4 vs placebo; type: in vivo, human; details: five hours after oral BH4 10 mg/kg
Procedure: Experimental Design. A controlled, randomized, double-blind, crossover experimental design with two conditions, BH4 and placebo, was used, with a washout period of ≥5 days between conditions. Subjects consumed a standardized breakfast and were administered oral BH4 (10 mg/kg) or placebo five hours prior arrival at the laboratory. Measurements were taken at the same time of day to eliminate any diurnal effects and after having abstained from food (not including the standardized breakfast), alcohol, caffeine, cardiovascular-acting medications, and exercise for ≥12 hours. In premenopausal women, measurements were performed during the early follicular phase of the menstrual cycle.
Blood Pressure. Seated BA blood pressure measurements were made with a semi-automated BP device (Tango+, SunTech, Morrisville, N.C.) in triplicate after 5 min in the upright seated position with the arm at heart level and under quiet, comfortable, ambient (˜22° C.) laboratory conditions. Mean arterial pressure (MAP) was calculated using the equation: ⅓ systolic blood pressure+⅔ diastolic blood pressure.
Statistics. Statistics were performed using SPSS software (IBM, Chicago, Ill.). Paired, one-tailed t-tests were used to identify significant changes in measured variables between placebo and BH4 conditions. Statistical significance was set at P<0.05 for all analyses. Unless indicated otherwise, data are presented as Means±SEM.

[4] = one SSc subject, BH4 vs placebo, data not shown
[5] = 11 SSc patients, five hours after oral BH4 10 mg/kg, P<0.05

SMILES: C[C@H](O)[C@H](O)[C@H]1CNc2nc(N)[nH]c(=O)c2N1 [BH4, tetrahydrobiopterin]
- blood pressure (patients with SSc [1]; human, in vivo): 125/77
- FMD, increase compared to placebo (patients with SSc [1]; one SSc subject, BH4 vs placebo, FIG. 7A): 73%
- peak hyperemia, increase compared to placebo (patients with SSc [1]; one SSc subject, BH4 vs placebo, FIG. 7B): 63%
- area under the curve for hyperemia, increase compared to placebo (patients with SSc [1]; one SSc subject, BH4 vs placebo, FIG. 7C): ~160%
- resting blood flow in the forearm, increase compared to placebo (patients with SSc [1]; [4]): ~20%
- resting blood flow in the leg, increase compared to placebo (patients with SSc [1]; [4]): 34%
- absolute FMD, improvement vs. placebo (patients with SSc [2]; [5]): 44%
- percentage FMD, improvement vs. placebo (patients with SSc [2]; [5]): 48%
- FMD value in the BH4 condition (patients with SSc [2]; second study, placebo FMD 3.2%, corresponds to highest tertile of FMD): 5.6%
- casual seated diastolic blood pressure (patients with SSc [3]; Means ± SEM, P>0.05 vs placebo): 68±2 mmHg
- casual seated systolic blood pressure (patients with SSc [3]; Means ± SEM, P>0.05 vs placebo): 109±5 mmHg
- MAP, difference in the BH4 condition compared to placebo (patients with SSc [3]; P<0.05 vs placebo): ~−2 mmHg
